Structures are written as SMILES.

In the experiment the test system is MIN6 cells. The experiment in a line: Insulin secretion assay in MIN6 cells treated with palmitate with or without Cannabidiol. It is filed as cell-based, mouse. The conditions noted are these: 10 μM Cannabidiol, 0.4 mM palmitate coupled to 0.92% BSA for 48 h; 2.8 or 25 mM glucose for 1 h. The protocol: FIG. 11 is a graphical represenatation showing that an inhibitor of Id1 expression (Cannabidiol) protects MIN6 beta cells against lipid (palmitate)-induced insulin secretory dysfunction. Cells were treated with either 0.92% BSA or 0.92% BSA coupled to 0.4 mM palmitate for 48 h, in combination with the absence or presence of 10 μM Cannabidiol. Insulin secretion assay was performed. After 30-min preincubation in KRB medium containing 2.8 mM glucose, the cells were incubated in KRB medium containing either 2.8 mM glucose (clear bars) or 25 mM glucose (dark bars) for 1 h. Medium was taken to determine levels of insulin secretion. Insulin secretion expressed as fold change compared with Control cells incubated with 25 mM glucose. Results are means±SE. The MIN6 cell line was also used to examine the effects of inhibition of Id1 on lipid-induced insulin secretory dysfunction. MIN6 cells were grown in DMEM. Cells were seeded at 2×10^5 cells per well in 24-well plates. Cells were treated with either 0.92% BSA or 0.92% BSA coupled to 0.4 mM palmitate for 48 h, in combination with the absence or presence of 10 μM Cannabidiol. After chronic incubation, cells were washed in KRB buffer containing 2.8 mM glucose, and then they were preincubated for a further 30 min in 0.5 ml of the same medium at 37° C. […]

`C=C(C)[C@@H]1CCC(C)=C[C@H]1c1c(O)cc(CCCCC)cc1O` [Cannabidiol]: the “protection against palmitate-induced insulin secretory dysfunction” value is “protected the cells against palmitate-induced insulin secretory dysfunction”.

Values taken from patent US20130171158A1, “TREATMENT OF ABNORMALITIES OF GLUCOSE METABOLISM WITH AN ANTAGONIST OF INHIBITOR OF DIFFERENTIATION 1” (GARVAN INSTITUTE OF MEDICAL RESEARCH, priority 2010, published 2013).
